These results are taken from patent US8334316B2, “Substituted organosulfur compounds and methods of using thereof” (ACEA Biosciences, Inc., priority 2004, dated 2012).

Where “and” joins values, the source holds several entries; their conditions need not be identical. Equal values may be shown once. Marks after values point to notes of the source that are not given here.

Assay [1] has as its system H460 (human non small cell lung cancer cell line). As to the kind of experiment: RT-CES system cell proliferation/cytotoxicity, H460. Type of assay: cell-based. The settings on record: NCI-H460, time point of maximum inhibition.
Description: In operation, the devices with cells cultured in the wells are placed into a device station that is located inside an incubator. […] Under the RT-CES software control, the sensor analyzer can automatically select wells to be measured and continuously conduct impedance measurements. The impedance data from the analyzer is transferred to a computer, analyzed and processed by the integrated software.
To quantify cell status based on the measured cell-electrode impedance, a parameter termed Cell Index is derived, according to
[formula] where Rb(f) and Rcell(f) are the frequency dependent electrode resistances (a component of impedance) without cells or with cell present, respectively. N is the number of the frequency points at which the impedance is measured. Thus, Cell Index is a quantitative measure of the status of the cells in an electrode-containing well. Under the same physiological conditions, more cells attached on to the electrodes leads to larger Rcell(f) value, leading to a larger value for Cell Index. Furthermore, for the same number of cells present in the well, a change in the cell status such as morphology will lead to a change in the Cell Index. For example, an increase in cell adhesion or cell spreading leads to larger cell-electrode contact area which will lead to an increase in Rcell(f) and thus a larger value for Cell Index.
H460 cells (human lung cancer cells) were seeded into wells of 16× or 96× microtiter plate devices (electronic plates, i.e., the plates comprise microelectrode sensor arrays in the wells of the plate) with an initial seeding density of 8000 cells per well and were pre-incubated in incubator under standard cell culture conditions for about 22 hrs. […] The cell status was monitored prior to and after the compound addition using RT-CES system. […] The cell index was normalized against the cell index values at a time point just after compound addition (about 23 hrs after cell seeding).
For the assay performed on the RT-CES system, the cells were seeded into the 16× or 96× microtiter plate devices (electronic plates, i.e., the plates comprise microelectrode sensor arrays in the wells of the plate) at the seeding density ranging from 5000 cells/well to 15,000 cells/well. The cells were incubated at 5% CO2 and 37° C. for overnight till the cell indices reached the growth phase where the cell index was between 0.8 and 1.2. Serially diluted compounds were then added to the cells followed by dynamic monitoring of the effect of the compounds on the cell proliferation and cytotoxicity. The time-dependent IC50 values for each derivative were calculated based the dose responses of cell index value at different time points after compound treatment.
The test system of assay [2] is microtubules in COS cells. Description: Microtubule network in cultured COS cells (anti-tubulin immunofluorescence, confocal microscopy). In kind it is cell-based. As for the experimental part:
Cell Culture and Immunocytochemistry. COS cells were grown in DMEM media supplemented with non-essential amino acids, 10% FBS, antibiotic-antimycotic (Gibco BRL) at 37° C. and 5.5% CO2. […] Cells were then rinsed once with warm PBS, fixed with cold methanol, rinsed again in PBS and blocked overnight at 4° C. in PBT (PBS, 1% BSA, 0.5% Triton X-100). All subsequent stains and washes were done in PBT at room temperature unless stated otherwise. Cells were stained with the anti-tubulin mouse antibody DM-1 at 1:1000 for 1 hour, washed four times for 15 minutes each and then treated with Cy-3 conjugated goat anti mouse antibody at 1:100 for 1 hour in the dark. Next, samples were washed four times for 15 minutes each in PBT in the dark followed by a final 15 minute wash in PBS in the dark. Samples were then viewed by laser scanning confocal microscopy.

Assay [3] has as its system purified bovine brain tubulin. Description: In vitro microtubule assembly assay with pure (MAP-free) tubulin, light scattering OD400. Type of assay: biochemical. Conditions: 9 uM and 27 uM. The protocol: Microtubule Assembly Assays. Microtubule seeds were synthesized by incubating purified bovine brain tubulin with 1 mM GTP, 10% glycerol and 10% DMSO at 35° C. for 30 minutes, followed by shearing by passing the assembled microtubules 6 times through a 27 gauge needle. Microtubule assembly was assayed by adding 27.5 ul of microtubule seeds to spectrophotometer cuvettes (maintained at 35° C.) containing 247.5 ul purified bovine brain tubulin in a PEM-100 buffer (100 mM Pipes pH=6.8, 1 mM […], 1 mM MgSO4) supplemented with 1 mM GTP (and drug where applicable) and monitoring the OD400 for 2 hours. Since the compounds are dissolved in DMSO and DMSO can have a significant effect on microtubule assembly, DMSO was added to all cuvettes so as to equal the largest volume of drug added to reactions. It should be noted that the initial velocity of the microtubule assembly reactions is so fast that one can not always catch the initial rise on the light scattering profile because it is occurring while samples are being prepared. However, all samples start at the same optical density, since they are identical with the exception of the drug being introduced.

Assay [4] deals with P388 lymphocytic leukemia. As to the kind of experiment: Murine P388 lymphocytic leukemia model (intraperitoneal transplantation), life span. Type of assay: in vivo, mouse. Conditions: 10 mg/kg/d iv x7 qd. As for the experimental part: Both male and female mice were used.
Preparation and Administration of Test Compounds.
To prepare cancer cells for the P388 murine lymphocytic leukemia model, ascites of a P388 leukemia-bearing mouse were removed under sterile condition. The ascites were diluted in normal saline (1:6 for ascites to normal saline) to prepare cell suspension. 0.2 mL of the cell suspension was then injected intraperitoneally. […] The life span of carrier mice was determined within 30 days. The life span ratio comparing to the negative control group of the carrier mice in each compound treatment group was calculated according to the formula: Life span ratio %=average life span for the compound treatment group/average life span for the negative control group×100% (4)

The subject of another assay is HCT-8 human colon cancer. As to the kind of experiment: HCT-8 human colon cancer xenograft in nude mice (Example 3). Type of assay: in vivo. The settings on record: 10 mg/kg/d iv x7 qd. The source says:
Both male and female mice were used. […] Test control. […] Preparation and Administration of Test Compounds. […] For human tumor xenograft model, all used materials, including animal food, animal cage, supporting materials and apparatus contacted by animals, were high-pressure sterilized. Nude mice were maintained in laminar flow shelves under SPF condition. After tumor transplantation, mouse weight and tumor size in each compound dosage group were dynamically monitored and plotted.
A general note: Xenograft models place foreign cells or tissue in a host animal.

For assay [5], the system named is ao10/17 human ovarian cancer. As to the kind of experiment: ao10/17 human ovarian cancer xenograft in nude mice (Example 4). Type of assay: in vivo. The settings on record: for Tumor volume (cm^3): 10 mg/kg iv x7 qd. The protocol: Only female mice were used in this study. […] The high, middle and low doses of ACEA100108 were 50, […] and 8 mg/kg/d, respectively.
Preparation and Administration of Test Compounds. […] The high, middle and low dose of compound ACEA100108 was 50, 20 and 8 mg/kg, respectively.
The tumor tissues were grounded in normal saline (1:6 for tumor volume to saline volume) and tumor cell suspensions were prepared in the normal saline.
For the human ovarian cancer xenograft model, all used materials, including animal food, animal cage, supporting materials and apparatus contacted by animals, were high-pressure sterilized. Nude mice were maintained in laminar flow shelves under SPF condition. After tumor transplantation, mouse weight and tumor size in each compound dosage group were dynamically monitored and plotted. The tumor size was determined by measuring the major axis (a) and minor axis (b) of the tumor, and tumor volume was calculated according to the equation (3) in Example 3.

As to `Clc1ccccc1CSSSCc1ccccc1Cl` [ACEA100115, Di(o-chlorobenzyl)trisulfide], the IC50 (commonly the midpoint of a concentration-inhibition curve) in assay [1] was 23.2 µM.

Molecule `Cc1cccc(CSSSCc2cccc(C)c2)c1` [ACEA100116, di(m-methylbenzyl)trisulfide] had an IC50 in assay [1] of 12.5 µM. In assay [2] (4 hours exposure), the Microtubule network appearance result was “at the two higher concentrations, microtubules appear very short and abnormal”. The “Microtubule network / cell appearance” value in assay [2] (24 hours, 1 uM) was “appear relatively normal”. Besides, in assay [2] (24 hours, 3 uM or 9 uM), the Cell viability result is “essentially all cells treated with 3 uM or 9 uM were dead”. For the same molecule, the “Effect on microtubule assembly” value in assay [3] is listed as “promotes microtubule assembly”.

Turning to `FC(F)(F)c1cccc(CSSSCc2cccc(C(F)(F)F)c2)c1` [ACEA100117, Di(m-trifluoromethylbenzyl)trisulfide], in assay [1], the IC50 is > 50 µM.

Regarding `Clc1ccc(CSSSCc2ccc(Cl)cc2)cc1` [ACEA100118, Di(p-chlorobenzyl)trisulfide], the half-maximal inhibitory concentration (IC50) in assay [1] was found to be 9.6 µM.

Consider `CC(=O)O[C@H]1C(=O)[C@@]2(C)[C@H]([C@H](OC(=O)c3ccccc3)[C@]3(O)C[C@H](OC(=O)[C@H](O)[C@@H](NC(=O)c4ccccc4)c4ccccc4)C(C)=C1C3(C)C)[C@]1(OC(C)=O)CO[C@@H]1C[C@@H]2O` [Taxol, paclitaxel, reference compound], for which the “animal No. beginning/end (survivors)” value in assay [4] is 10/0. Moreover, the “Average life span X ± SD” value in assay [4] (observed within 30 days) turned out to be 10.5 ± 1.18. In the assay with HCT-8 human colon cancer, the “TV inhibition rate % T/C” value amounted to 44.45%. In addition, the “Tumor weight” value with HCT-8 human colon cancer was 1.02 ± 0.11 g; in assay [5] (10 mg/kg/d iv x7 qd), 0.77 ± 0.12 g. Moreover, in the assay on HCT-8 human colon cancer (7 day after transplantation), the “Mice with palpable tumor / total mice” value was 6/6††. The “Tumor volume (cm^3)” value with HCT-8 human colon cancer (7 day after transplantation) was 0.01 cm^3; in the assay on HCT-8 human colon cancer (14 d), 0.116 ± 0.03 cm^3; in the assay with HCT-8 human colon cancer (25 d (end)), 0.694 cm^3 and 0.694 ± 0.15 cm^3; in assay [5] (7 D after transplantation), 0.01 cm^3; in assay [5] (14 d), 0.033 ± 0.02 cm^3; in assay [5] (21 d) it was 0.196 ± 0.03 cm^3. Further, the “Tumor volume (cm^3)” value in assay [5] (24 d) turned out to be 0.349 ± 0.08 cm^3. For the same molecule, the “tumor inhibition rate %” value in the assay on HCT-8 human colon cancer (vs solvent control) is listed as 33.33%; in assay [5] (10 mg/kg/d iv x7 qd, vs solvent control), 45.39%. In addition, the Microtubule network appearance result in assay [2] (4 hours exposure) was “Microtubules appear bundled in some locations”; in assay [2] (24 hours exposure, increasing dosage), “increased bundling and the short microtubules persist”.
